Measured values reported in patent publication US8871681B2, “Herbicidal compositions comprising 4-amino-3-chloro-5-fluoro-6-(4-chloro-2-fluoro-3-methoxyphenyl) pyridine-2-carboxylic acid or a derivative thereof and certain sulfonylureas” (Dow AgroSciences LLC, priority 2012, dated 2014).

Experiments:
[1] = tested on: CASOB (Cassia obtusifolia, sicklepod); assay: Post-emergence herbicidal activity of mixtures in forage crops, greenhouse (Example IV); assay type: in vivo, Cassia obtusifolia L.; conditions: Table 58 (forage), foliar-applied, after approximately 21 days
Procedure: (§1) Seeds or root cuttings of the desired test plant species were planted in Sun Gro MetroMix® 306 planting mixture, which typically has a pH of 6.0 to 6.8 and an organic matter content of about 30 percent, in plastic pots with a surface area of 126.6 square centimeters (cm^2). When required to ensure good germination and healthy plants, a fungicide treatment and/or other chemical or physical treatment was applied. The plants were grown for 14-60 days in a greenhouse with an approximate 14 hour photoperiod which was maintained at approximately 28° C. during the day and 24° C. during the night. Nutrients and water were added on a regular basis and supplemental lighting was provided with overhead metal halide 1000-Watt lamps as necessary. The plants were employed for testing when they reached the BBCH13 to BBCH23 leaf stage.
(§2) Treatments consisted of the benzyl ester of 4-amino-3-chloro-5-fluoro-6-(4-chloro-2-fluoro-3-methoxy-phenyl)pyridine-2-carboxylic acid (Compound A), formulated as a SC, and a second herbicide alone and in combination.
(§3) A measured aliquot of Compound A was placed in 25 milliliter (mL) glass vial and diluted in a volume of 1.25% (v/v) Agri-dex crop oil concentrated to obtain stock solutions. Compound requirements are based upon a 12 mL application volume at a rate of 187 liters per hectare (L/ha). Spray solutions of the second cereal herbicide and experimental compound mixtures were prepared by adding the stock solutions to the appropriate amount of dilution solution to form 12 mL spray solution with active ingredients in two- and three-way combinations. […]
(§4) The treated plants and control plants were placed in a greenhouse as described above and watered by sub-irrigation to prevent wash-off of the test compounds. After approximately 21 days, the condition of the test plants, as compared with that of the control plants, was determined visually and scored on a scale of 0 to 100 percent where 0 corresponds to no injury and 100 corresponds to complete kill. […]

[2] = tested on: POROL (Portulaca oleracea, portulaca); assay: as above; assay type: in vivo, Portulaca oleracea L.; conditions: Table 58 (forage), foliar-applied, after approximately 21 days
Procedure: as §1, §2, §3, §4

[3] = tested on: ECHCO (Echinochloa colona, junglerice); assay: In-water applied weed control, transplanted paddy rice, greenhouse (Example II); assay type: in vivo, Echinochloa colona (L.) Link
Procedure: Weed seeds or nutlets of the desired test plant species were planted in puddled soil (mud) prepared by mixing a shredded, non-sterilized mineral soil (50.5 percent silt, 25.5 percent clay, and 24 percent sand, with a pH of about 7.6 and an organic matter content of about 2.9 percent) and water at a 1:1 volumetric ratio. The prepared mud was dispensed in 365 mL aliquots into 16-ounce (oz.) non-perforated plastic pots with a surface area of 86.59 square centimeters (cm^2) leaving a headspace of 3 centimeters (cm) in each pot. Rice seeds were planted in Sun Gro MetroMix® 306 planting mixture, which typically has a pH of 6.0 to 6.8 and an organic matter content of about 30 percent, in plastic plug trays. Seedlings at the second or third leaf stage of growth were transplanted into 860 mL of mud contained in 32-oz. non-perforated plastic pots with a surface area of 86.59 cm^2 4 days prior to herbicide application. The paddy was created by filling the headspace of the pots with 2.5 to 3 cm of water. When required to ensure good germination and healthy plants, a fungicide treatment and/or other chemical or physical treatment was applied. The plants were grown for 4-22 days in a greenhouse with an approximate 14 h photoperiod which was maintained at about 29′C during the day and 26° C. during the night. Nutrients were added as Osmocote® (19:6:12, N:P:K+minor nutrients) at 2 g per 16-oz. pot and 4 g per 32-oz. pot. Water was added on a regular basis to maintain the paddy flood, and supplemental lighting was provided with overhead metal halide 1000-Watt lamps as necessary. The plants were employed for testing when they reached the first through fourth true leaf stage.
Treatments consisted of the acid or esters of 4-amino-3-chloro-5-fluoro-6-(4-chloro-2-fluoro-3-methoxy-phenyl)pyridine-2-carboxylic acid (compound A) each formulated as an SC and various herbicidal components alone and in combination. Forms of compound A were applied on an acid equivalent basis.
Other herbicidal components were applied on an active ingredient basis and included acetolactate synthase (ALS)-inhibiting herbicides (sulfonylurea chemical class), azimsulfuron formulated as Gulliver®, bensulfuron-methyl formulated as Londax® 60DF, cyclosulfamuron (technical grade materail), ethoxysulfuron formulated as Sunrice® 15 WDG, flucetosulfuron formulated as Sukedachi® 1KG G, imazosulfuron formulated as Brazzos®, metsulfuron-methyl formulated as Lorate®, nicosulfuron formulated as Accent®, orthosulfamuron formulated as Strada® WG, propyrisulfuron formulated as Zeta One®, and rimsulfuron formulated as Matrix® WG.
Treatment requirements for each compound or herbicidal component were calculated based upon the rates being tested, the concentration of active ingredient or acid equivalent in the formulation, an application volume of 2 mL per component per pot, and an application area of 86.59 cm^2 per pot.
For formulated compounds, a measured amount was placed in an individual 100 or 200 mL glass vial and was dissolved in a volume of 1.25% (v/v) Agri-Dex® crop oil concentrate to obtain application solutions.
For technical grade compounds, a weighed amount was placed in an individual 100 to 200 mL glass vial and was dissolved in a volume of acetone to obtain concentrated stock solutions. […] The concentrated stock solutions obtained were diluted with an equivalent volume of an aqueous mixture containing 2.5% (v/v) crop oil concentrate so that the final application solutions contained 1.25% (v/v) crop oil concentrate.
Applications were made by injecting with a pipetter appropriate amounts of the application solutions, individually and sequentially, into the aqueous layer of the paddy. Control plants were treated in the same manner with the solvent blank. Applications were made so that all treated plant material received the same concentrations of acetone and crop oil concentrate. […]

SMILES: COc1c(Cl)ccc(-c2nc(C(=O)OCc3ccccc3)c(Cl)c(N)c2F)c1F [Compound A Benzyl Ester]
- Weed Control CASOB Obs ([1]; 2.2 gai/ha alone): 33%
- Weed Control CASOB Obs ([1]; 4.4 gai/ha alone): 38%
- Weed Control POROL Obs ([2]; 2.2 gai/ha alone): 47%
- Weed Control POROL Obs ([2]; 4.4 gai/ha alone): 60%
- Visual Weed Control (%) - 21 DAA ECHCO Obs ([3]; Table 39, 4.38 gae/ha alone): 45%
- Visual Weed Control (%) - 21 DAA ECHCO Obs ([3]; Table 39, 8.75 gae/ha alone): 30%
- Visual Weed Control (%) - 21 DAA ECHCO Obs ([3]; Table 39, 17.5 gae/ha alone): 95%
